Data from US5053070A, “Pyrimidine derivatives, preparation processes thereof, herbicide containing the same, and herbicidal compositions containing the same along with other active ingredient” (Mitsui Toatsu Chemicals, Incorporated, priority 1988, dated 1991).
In brackets after ≈: the same amount, converted by molar mass. Values belong to the compound of their own block, whether it stands above or below them.

How the values were obtained:
[1] = test system: ALS (acetolactate syntase); test: ALS enzyme assay (Test 1); type: biochemical, barnyardgrass; conditions: 1,000 ppm (0.5 mg/0.5 ml)
Summary of the method: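 Partially purified ALS from dark-grown pea and barnyardgrass seedlings incubated 1 h at 30° C with pyruvate, TPP, MgCl2 and FAD. Compounds tested at 1,000 ppm (0.5 mg/0.5 ml). Acetoin formed detected colorimetrically at 525 nm via creatine/α-naphthol, relative to blank and acid-stopped controls.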

narrowleaf waterplantain = test: Petri dish test (Test 6); type: in vivo; conditions: 336 h; seeds on filter paper, 25° C., 14 days; read-out: I80 (ppm)
Summary of the method: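 Narrowleaf waterplantain seeds placed on filter paper pre-treated with compound in acetone (solvent air-dried) in 9 cm Petri dishes with 10 ml water, grown at 25° C in light. Growth was scored after fourteen days as degree of damage against an untreated group.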

rice = test: Treatment of soil under submerged condition, post-emergence (Test 5), injury; type: in vivo; conditions: 30 g ai/a granule, 30 days later
Summary of the method: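 Scoring of weed emergence and rice injury took place 30 days after treatment. Treatment was a granule of the test composition, applied once barnyardgrass had two leaves, to submerged soil holding sown weeds and transplanted 2–3-leaf rice pairs grown under glass.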

large crabgrass = test: Upland foliar application test (Test 3); type: in vivo; conditions: 30 g ai/a, foliar spray at 2-3 leaves, 30th day
Summary of the method: (§1)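 Upland-soil pots seeded with weeds and crops (incl. cotton, large crabgrass, johnsongrass, common lambsquarters), grown in greenhouse to 2-3 leaf stage. Emulsion diluted with water sprayed on foliage at 5 l per are via ULV sprayer. Weed damage and crop injury scored 30 days after spraying.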

redroot pigweed = test: Upland foliar application test (Test 3); type: in vivo; conditions: 30 g ai/a, foliar spray at 2-3 leaves, 30th day
Summary of the method: as §1

foxtail meadow = test: Upland foliar application test (Test 3); type: in vivo; conditions: 30 g ai/a, foliar spray at 2-3 leaves, 30th day
Summary of the method: as §1

barnyardgrass = test: Upland foliar application test (Test 3); type: in vivo; conditions: 30 g ai/a, foliar spray at 2-3 leaves, 30th day
Summary of the method: as §1

common lambsquarters = test: Upland foliar application test (Test 3); type: in vivo; conditions: 30 g ai/a, foliar spray at 2-3 leaves, 30th day
Summary of the method: as §1

green foxtail = test: Upland foliar application test (Test 3); type: in vivo; conditions: 30 g ai/a, foliar spray at 2-3 leaves, 30th day
Summary of the method: as §1

johnsongrass = test: Upland foliar application test (Test 3); type: in vivo; conditions: 30 g ai/a, foliar spray at 2-3 leaves, 30th day
Summary of the method: as §1

peanut = test: Upland foliar application test (Test 3), crop injury; type: in vivo; conditions: 30 g ai/a, foliar spray at 2-3 leaves, 30th day
Summary of the method: as §1

soybean = test: as above; type: in vivo; conditions: 30 g ai/a, foliar spray at 2-3 leaves, 30th day
Summary of the method: as §1

cotton = test: as above; type: in vivo; conditions: 30 g ai/a, foliar spray at 2-3 leaves, 30th day
Summary of the method: as §1

Inhibitory activity (%) Barnyardgrass [1]: 39%
Structure (SMILES): CCCC=CCON=Cc1ccccc1Oc1nc(OC)cc(OC)n1 [compound 25]
IC80 (narrowleaf waterplantain): 17 µg/mL (≈ 47.6 µM)
Injury Rice (rice): 1 (71-90 (Slight damages))
Herbicidal effects Large crabgrass (large crabgrass): 5 (0-5 (Death))
Herbicidal effects Redroot pigweed (redroot pigweed): 4 (6-10 (Severe damages))
Herbicidal effects Foxtail meadow (foxtail meadow): 5 (0-5 (Death))
Herbicidal effects Barnyardgrass (barnyardgrass): 4 (6-10 (Severe damages))
Herbicidal effects Common lambsquarters (common lambsquarters): 4 (6-10 (Severe damages))
Herbicidal effects Green foxtail (green foxtail): 5 (0-5 (Death))
Herbicidal effects Johnsongrass (johnsongrass): 5 (0-5 (Death))
Injury Peanut (peanut): 0 (91-100 (No damages))
Injury Soybean (soybean): 0 (91-100 (No damages))
Injury Cotton (cotton): 0 (91-100 (No damages))

Inhibitory activity (%) Barnyardgrass [1]: 89%
Structure (SMILES): COc1cc(OC)nc(Oc2ccccc2C=NOCC=Cc2cccc(Cl)c2Cl)n1 [compound 41]
IC80 (narrowleaf waterplantain): 2 µg/mL (≈ 4.34 µM)
Injury Rice (rice): 0 (91-100 (No damages))
Herbicidal effects Large crabgrass (large crabgrass): 5 (0-5 (Death))
Herbicidal effects Redroot pigweed (redroot pigweed): 5 (0-5 (Death))
Herbicidal effects Foxtail meadow (foxtail meadow): 4 (6-10 (Severe damages))
Herbicidal effects Barnyardgrass (barnyardgrass): 5 (0-5 (Death))
Herbicidal effects Common lambsquarters (common lambsquarters): 4 (6-10 (Severe damages))
Herbicidal effects Green foxtail (green foxtail): 4 (6-10 (Severe damages))
Herbicidal effects Johnsongrass (johnsongrass): 5 (0-5 (Death))
Injury Peanut (peanut): 0 (91-100 (No damages))
Injury Soybean (soybean): 0 (91-100 (No damages))
Injury Cotton (cotton): 0 (91-100 (No damages))

Inhibitory activity (%) Barnyardgrass [1]: 90%
Structure (SMILES): COc1cc(OC)nc(Oc2ccccc2C=NOCC=Cc2ccc(Cl)c(Cl)c2)n1 [compound 31]
IC80 (narrowleaf waterplantain): 2 µg/mL (≈ 4.34 µM)
Injury Rice (rice): 0 (91-100 (No damages))
Herbicidal effects Large crabgrass (large crabgrass): 4 (6-10 (Severe damages))
Herbicidal effects Redroot pigweed (redroot pigweed): 3 (11-40 (Medium damages))
Herbicidal effects Foxtail meadow (foxtail meadow): 4 (6-10 (Severe damages))
Herbicidal effects Barnyardgrass (barnyardgrass): 4 (6-10 (Severe damages))
Herbicidal effects Common lambsquarters (common lambsquarters): 4 (6-10 (Severe damages))
Herbicidal effects Green foxtail (green foxtail): 4 (6-10 (Severe damages))
Herbicidal effects Johnsongrass (johnsongrass): 5 (0-5 (Death))
Injury Peanut (peanut): 0 (91-100 (No damages))
Injury Soybean (soybean): 0 (91-100 (No damages))
Injury Cotton (cotton): 0 (91-100 (No damages))

Inhibitory activity (%) Barnyardgrass [1]: 56%
Structure (SMILES): C=C(Cl)CON=Cc1ccccc1Oc1nc(OC)cc(OC)n1 [Compound No. 14]
IC80 (narrowleaf waterplantain): 100 µg/mL (≈ 286 µM)
Injury Rice (rice): 1 (71-90 (Slight damages))
Herbicidal effects Large crabgrass (large crabgrass): 5 (0-5 (Death))
Herbicidal effects Redroot pigweed (redroot pigweed): 4 (6-10 (Severe damages))
Herbicidal effects Foxtail meadow (foxtail meadow): 5 (0-5 (Death))
Herbicidal effects Barnyardgrass (barnyardgrass): 5 (0-5 (Death))
Herbicidal effects Common lambsquarters (common lambsquarters): 4 (6-10 (Severe damages))
Herbicidal effects Green foxtail (green foxtail): 5 (0-5 (Death))
Herbicidal effects Johnsongrass (johnsongrass): 5 (0-5 (Death))
Injury Peanut (peanut): 0 (91-100 (No damages))
Injury Soybean (soybean): 0 (91-100 (No damages))
Injury Cotton (cotton): 0 (91-100 (No damages))

Inhibitory activity (%) Barnyardgrass [1]: 21%
Structure (SMILES): C=CC(C)ON=Cc1ccccc1Oc1nc(OC)cc(OC)n1 (stereo not shown) [Compound No. 2]
IC80 (narrowleaf waterplantain): 100 µg/mL (≈ 304 µM)
Injury Rice (rice): 0 (91-100 (No damages))
Herbicidal effects Large crabgrass (large crabgrass): 5 (0-5 (Death))
Herbicidal effects Redroot pigweed (redroot pigweed): 4 (6-10 (Severe damages))
Herbicidal effects Foxtail meadow (foxtail meadow): 5 (0-5 (Death))
Herbicidal effects Barnyardgrass (barnyardgrass): 5 (0-5 (Death))
Herbicidal effects Common lambsquarters (common lambsquarters): 4 (6-10 (Severe damages))
Herbicidal effects Green foxtail (green foxtail): 5 (0-5 (Death))
Herbicidal effects Johnsongrass (johnsongrass): 5 (0-5 (Death))
Injury Peanut (peanut): 0 (91-100 (No damages))
Injury Soybean (soybean): 0 (91-100 (No damages))
Injury Cotton (cotton): 0 (91-100 (No damages))

Inhibitory activity (%) Barnyardgrass [1]: 15%
Structure (SMILES): COc1cc(OC)nc(Oc2ccccc2C=NOCc2ccccc2Cl)n1 [compound 16]
IC80 (narrowleaf waterplantain): 100 µg/mL (≈ 250 µM)
Injury Rice (rice): 0 (91-100 (No damages))
Herbicidal effects Large crabgrass (large crabgrass): 3 (11-40 (Medium damages))
Herbicidal effects Redroot pigweed (redroot pigweed): 4 (6-10 (Severe damages))
Herbicidal effects Foxtail meadow (foxtail meadow): 3 (11-40 (Medium damages))
Herbicidal effects Barnyardgrass (barnyardgrass): 3 (11-40 (Medium damages))
Herbicidal effects Common lambsquarters (common lambsquarters): 3 (11-40 (Medium damages))
Herbicidal effects Green foxtail (green foxtail): 5 (0-5 (Death))
Herbicidal effects Johnsongrass (johnsongrass): 5 (0-5 (Death))
Injury Peanut (peanut): 0 (91-100 (No damages))
Injury Soybean (soybean): 0 (91-100 (No damages))
Injury Cotton (cotton): 0 (91-100 (No damages))

The remaining lines, values behind:

Structure (SMILES): COc1cc(OC)nc(Oc2ccccc2C=NOCc2cccc3ccccc23)n1 [compound 22]
Inhibitory activity (%) Barnyardgrass [1]: 35%
IC80 (narrowleaf waterplantain): 100 µg/mL (≈ 241 µM)
Injury Rice (rice): 0 (91-100 (No damages))
Herbicidal effects Large crabgrass (large crabgrass): 5 (0-5 (Death))
Herbicidal effects Redroot pigweed (redroot pigweed): 5 (0-5 (Death))
Herbicidal effects Foxtail meadow (foxtail meadow): 5 (0-5 (Death))
Herbicidal effects Barnyardgrass (barnyardgrass): 5 (0-5 (Death))
Herbicidal effects Common lambsquarters (common lambsquarters): 4 (6-10 (Severe damages))
Herbicidal effects Green foxtail (green foxtail): 5 (0-5 (Death))
Herbicidal effects Johnsongrass (johnsongrass): 5 (0-5 (Death))
Injury Peanut (peanut): 0 (91-100 (No damages))
Injury Soybean (soybean): 0 (91-100 (No damages))
Injury Cotton (cotton): 0 (91-100 (No damages))

Structure (SMILES): COC(=O)c1ccccc1Oc1nc(OC)cc(OC)n1 [A, reference compound]
Inhibitory activity (%) Barnyardgrass [1]: 73%
IC80 (narrowleaf waterplantain): 1 µg/mL (≈ 3.45 µM)
Injury Rice (rice): 5 (0-5 (Death))
Herbicidal effects Large crabgrass (large crabgrass): 5 (0-5 (Death))
Herbicidal effects Redroot pigweed (redroot pigweed): 5 (0-5 (Death))
Herbicidal effects Foxtail meadow (foxtail meadow): 5 (0-5 (Death))
Herbicidal effects Barnyardgrass (barnyardgrass): 5 (0-5 (Death))
Herbicidal effects Common lambsquarters (common lambsquarters): 4 (6-10 (Severe damages))
Herbicidal effects Green foxtail (green foxtail): 5 (0-5 (Death))
Herbicidal effects Johnsongrass (johnsongrass): 5 (0-5 (Death))
Injury Peanut (peanut): 5 (0-5 (Death))
Injury Soybean (soybean): 5 (0-5 (Death))
Injury Cotton (cotton): 5 (0-5 (Death))

Structure (SMILES): COc1cc(OC)nc(Oc2ccccc2C=NOCC=Cc2c(F)cccc2F)n1 [compound 33]
Inhibitory activity (%) Barnyardgrass [1]: 91%
IC80 (narrowleaf waterplantain): 8 µg/mL (≈ 18.7 µM)
Injury Rice (rice): 1 (71-90 (Slight damages))
Herbicidal effects Large crabgrass (large crabgrass): 5 (0-5 (Death))
Herbicidal effects Redroot pigweed (redroot pigweed): 4 (6-10 (Severe damages))
Herbicidal effects Foxtail meadow (foxtail meadow): 5 (0-5 (Death))
Herbicidal effects Barnyardgrass (barnyardgrass): 5 (0-5 (Death))
Herbicidal effects Common lambsquarters (common lambsquarters): 4 (6-10 (Severe damages))
Herbicidal effects Green foxtail (green foxtail): 5 (0-5 (Death))
Herbicidal effects Johnsongrass (johnsongrass): 5 (0-5 (Death))
Injury Peanut (peanut): 0 (91-100 (No damages))
Injury Soybean (soybean): 0 (91-100 (No damages))
Injury Cotton (cotton): 0 (91-100 (No damages))

Structure (SMILES): COc1cc(OC)nc(Oc2ccccc2C=NOCC=Cc2ccccc2C)n1 [Compound No. 39]
Inhibitory activity (%) Barnyardgrass [1]: 92%
IC80 (narrowleaf waterplantain): 2 µg/mL (≈ 4.93 µM)
Injury Rice (rice): 0 (91-100 (No damages))
Herbicidal effects Large crabgrass (large crabgrass): 5 (0-5 (Death))
Herbicidal effects Redroot pigweed (redroot pigweed): 5 (0-5 (Death))
Herbicidal effects Foxtail meadow (foxtail meadow): 5 (0-5 (Death))
Herbicidal effects Barnyardgrass (barnyardgrass): 5 (0-5 (Death))
Herbicidal effects Common lambsquarters (common lambsquarters): 4 (6-10 (Severe damages))
Herbicidal effects Green foxtail (green foxtail): 5 (0-5 (Death))
Herbicidal effects Johnsongrass (johnsongrass): 5 (0-5 (Death))
Injury Peanut (peanut): 0 (91-100 (No damages))
Injury Soybean (soybean): 0 (91-100 (No damages))
Injury Cotton (cotton): 0 (91-100 (No damages))
